Several values for one entry are separate records, joined by “and”; a condition that tells them apart may be missing. Equal entries are not always repeated.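 How tested: cells in 96-well plates exposed to compound for 48 hours at five concentrations. GI50 is the concentration that inhibits growth by half. TGI marks complete inhibition of growth.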
Tests used:
Assay in all cases: DTP human tumour cell line panel, 48 h
[1] = test system: OVCAR-5 ovarian
[2] = test system: UO-31 renal
[3] = test system: RXF 393 renal
[4] = test system: SK-MEL-5 melanoma
[5] = test system: T-47D breast
[6] = test system: SR leukemia
[7] = test system: MDA-N
[8] = test system: SNB-19 CNS
[9] = test system: UACC-257 melanoma
[10] = test system: SNB-75 CNS
[11] = test system: HOP-62 NSCLC
[12] = test system: CCRF-CEM leukemia
[13] = test system: SW-620 colon
[14] = test system: TK-10 renal
[15] = test system: LOX IMVI melanoma
[16] = test system: NCI-H23 lung
[17] = test system: HCC-2998 colon
[18] = test system: NCI/ADR-RES ovarian
[19] = test system: SK-MEL-2 melanoma

SMILES | TGI [1] | TGI [2] | TGI [3] | TGI [4] | TGI [5] | TGI [6] | TGI [7] | TGI [8] | TGI [9] | TGI [10] | TGI [11] | TGI [12] | TGI [13] | TGI [14] | TGI [15] | TGI [16] | TGI [17] | TGI [18] | TGI [19] | GI50 [10]
CCOC(=O)c1nc2ccc(C(F)(F)F)cc2nc1Nc1ccc(OC)c(OC)c1 | > 100 µM | > 100 µM | > 100 µM | > 100 µM | > 100 µM | > 100 µM | > 100 µM | > 100 µM | > 100 µM | 67.4 µM | 29 µM | > 100 µM | > 100 µM | > 100 µM | > 100 µM | > 100 µM | > 100 µM | > 100 µM | – | –
CCCC[Si](CCCC)(CCCC)O[C@@H](/C=C/C(=O)OCC)[C@H](Cc1ccccc1)O[Si](CCCC)(CCCC)CCCC | > 100 µM | > 100 µM | > 100 µM | – | > 100 µM | > 100 µM | > 100 µM | > 100 µM | > 100 µM | > 100 µM | > 100 µM | > 100 µM | > 100 µM | > 100 µM | > 100 µM | > 100 µM | > 100 µM | > 100 µM | > 100 µM | –
Cc1cc(-c2ccc(Cl)cc2)c(C#N)c(=S)n1C1OC(CO)C(O)C(O)C1O (stereo unspecified) | > 100 µM | – | > 100 µM | > 100 µM | > 100 µM | > 100 µM | > 100 µM | > 100 µM | > 100 µM | 78.7 µM | > 100 µM | > 100 µM | > 100 µM | > 100 µM | > 100 µM | > 100 µM | > 100 µM | > 100 µM | > 100 µM | –
CN(C)C1COC2Cc3ccccc3C1O2 (stereo unspecified) | > 100 µM | > 100 µM | > 100 µM | > 100 µM | > 100 µM | > 100 µM | > 100 µM | > 100 µM | > 100 µM | 83.5 µM and 79.7 µM | > 100 µM | > 100 µM | > 100 µM | > 100 µM | > 100 µM | > 100 µM | > 100 µM | > 100 µM | > 100 µM | 3.16 µM and 11.2 µM
CC1=C/C(=C(/c2ccc(O)c(C)c2)c2ccccc2C(=O)O)C=CC1=O | 42.3 µM | 33.6 µM | 33.8 µM | 34.9 µM | 72.1 µM | 47 µM | 33.2 µM | 32.2 µM | 35.8 µM | 35.8 µM | 38 µM | 45.1 µM | 39 µM | 31.1 µM | 35.9 µM | 36.6 µM | 34.5 µM | 80.5 µM | 38.5 µM | –
Clc1cccc(Cl)c1C1SCc2nc3ncccc3n21 (stereo unspecified) | > 100 µM | > 100 µM | > 100 µM | > 100 µM | > 100 µM | > 100 µM | > 100 µM | > 100 µM | > 100 µM | > 100 µM | > 100 µM | > 100 µM | > 100 µM | > 100 µM | > 100 µM | > 100 µM | > 100 µM | > 100 µM | > 100 µM | –
CC1(c2nc3cc(Cl)c(Cl)cc3[nH]2)CCC(C(=O)O)C(C)(C)O1 (stereo unspecified) | > 100 µM | > 100 µM | > 100 µM | > 100 µM | > 100 µM | > 100 µM | > 100 µM | > 100 µM | > 100 µM | > 100 µM | > 100 µM | > 100 µM | > 100 µM | > 100 µM | > 100 µM | > 100 µM | > 100 µM | > 100 µM | > 100 µM | –
O=C(NO)c1ccc(OCc2ccccc2)cc1 | > 100 µM | 72.8 µM | > 100 µM | > 100 µM | 81.5 µM | 90.9 µM | > 100 µM | > 100 µM | > 100 µM | > 100 µM | > 100 µM | > 100 µM | > 100 µM | > 100 µM | 55.8 µM | 28.1 µM | > 100 µM | 32.1 µM | > 100 µM | –
CC(=O)O[C@H]1C(=O)[C@@]2(C)[C@H]([C@H](OC(=O)c3ccncc3)[C@]3(O)C[C@H](OC(=O)[C@H](O)[C@@H](NC(=O)c4ccccc4)c4ccccc4)C(C)=C1C3(C)C)[C@]1(OC(C)=O)CO[C@@H]1C[C@@H]2O | > 25 µM | > 25 µM | > 23.3 µM | > 22 µM | > 25 µM | > 25 µM | 2.1 µM | > 25 µM | > 25 µM | > 18.1 µM | > 25 µM | 10.7 µM | > 25 µM | > 25 µM | > 25 µM | > 25 µM | 11 µM | > 25 µM | > 25 µM | –
O=C1C(c2c(O)[nH]c3ccc(S(=O)(=O)N(CCO)CCO)cc23)=Nc2ccccc21 | > 100 µM | > 100 µM | 6.53 µM | > 100 µM | 20.3 µM | > 100 µM | > 100 µM | > 100 µM | > 100 µM | 8.49 µM | > 100 µM | > 100 µM | > 100 µM | > 100 µM | > 100 µM | > 100 µM | > 100 µM | > 100 µM | > 100 µM | –
CN(CCNC(=O)c1cc(-c2ccccc2)nc2ccccc12)CCNC(=O)c1cc(-c2ccccc2)nc2ccccc12 | > 55.7 µM | > 100 µM | > 57.7 µM | 5.7 µM | > 100 µM | 7.63 µM | 32.2 µM | > 100 µM | 10.2 µM | 39.9 µM | > 100 µM | > 100 µM | 24.9 µM | > 100 µM | 16 µM | > 100 µM | 5.54 µM | > 100 µM | 24.9 µM | –
C[C@]12CCC(=O)C=C1CC[C@@H]1[C@@H]2CC[C@]2(C)C(=O)/C(=C\c3ccccc3)C[C@@H]12 | > 100 µM | > 70.6 µM | > 73.7 µM | > 48.6 µM | > 86.7 µM | > 49.2 µM | 48 µM | > 100 µM | > 100 µM | > 100 µM | > 100 µM | 23.3 µM | > 56.9 µM | > 100 µM | > 51.5 µM | 62.5 µM | 35.9 µM | 72.7 µM | 46.1 µM | –

— PubChem BioAssay (NCI)
